Measured values reported in patent US7932213B2, “Small molecule printing” (President and Fellows of Harvard College, priority 1999, dated 2011).

How the values were obtained:
calmodulin = calmodulin (Homo sapiens, UniProt P0DP23); test: Surface plasmon resonance (BIAcore) binding to immobilized calmodulin; conditions: SPR, steady state affinity analysis; resynthesized, purified compound; PBST containing 4% DMF
Experimental: Cy5 detection was chosen to avoid conflict with compound autofluorescence in the Cy3 channel. Positive hits from the microarray were retested for their ability to bind to the immobilized protein using surface plasmon resonance (SPR) spectroscopy (BIAcore). This process enables a rapid initial prioritization of positives prior to resynthesis, The initial secondary SPR screening was performed using compound (2 μL of a 1 mM DMF stock) directly from the original stock solutions used for microarray production. […] For this set, compound 5, 6, and 7 were resynthesized, purified, and their KDs with calmodulin determined by SPR using steady state affinity analysis.
Tetracycle 7: ^1H NMR (500 MHz, CDCl3) δ 6.95 (d, J=8.5 Hz, 2H), 6.87 (m, 4H), 6.71 (d, J=8.0 Hz, 2H), 6.55 (q, J=1.5 Hz, 1H), 6.04 (m, 1H), 4.93 (s, 1H), 4.68 (s, 1H), 3.84 (t, J=5.0 Hz, 4H), 3.34 (dd, J=17.0, 2.5 Hz, 1H), 3.28 (m, 2H), 3.16 (t, J=5.0 Hz, 4H), 3.02 (m, 1H), 2.94 (dd, J=15.0, 7.0 Hz, 1H), 2.54 (dd, J=17.5, 8.5 Hz, 1H), 2.36 (ddd J=15.5, 6.5, 3.5 Hz, 1H), 2.05 (d, J=1.5 Hz, 3H); ^13C NMR (125 MHz, CDCl3) δ 186.4, 186.1, 178.8, 177.1, 154.4, 151.2, 146.0, 143.4, 140.8, 139.5, 132.6, 132.5, 128.2, 127.1, 123.1, 122.7, 115.6, 115.5, 66.7, 48.7, 43.9, 42.6, 39.1, 32.4, 24.5, 24.1, 16.1; FT-IR (thin film) 3411, 2961, 2907, 2852, 1699, 1690, 1649, 1611, 1513, 1441, 1381, 1261, 1234, 1173, 1113, 922, 818, 730 cm^−1; HRMS (TOF ES) calcd for C33H31N2O6, 551.2182 m/z (M+H)^+; observed 551.2186 (0.8 ppm error). BIAcore Experiments Immobilization. In all experiments, calmodulin (CaM) was immobilized on a carboxymethylated dextran-coated sensor chip (CM5, Biacore AB, Uppsala, Sweden) at 25° C. For protein immobilization, ‘specific flow rate’ was selected and the protein of interest was immobilized in flow cells 2 and 4. On Biacore 3000, the sensor chip was activated (7 min in flow cells 2 and 4) by addition of 0.2 M N-ethyl-N'-(3-dimethylaminopropyl) carbodiimide hydrochloride (EDC) and 0.05 M N-hydroxysuccinimide (NHS) at 20 μL/min. […]

[1] = Precipitation of sample in SPR binding buffer (4% DMF/PBST); format: physicochemical; conditions: at 125 μM
Experimental: After the prioritization step, compounds 5, 6 and 7 were resynthesized, purified and subjected to KD determination. Samples were injected over a range of concentrations (e.g. 0.1-125 μM). The compound was prepared as a 10 mM stock solution in DMF. Serial dilutions of this stock were made and then added to the heated PBST (˜70° C., 1 min). In this analysis, a 200 μL final volume was prepared by addition of 8 μL of small molecule DMF solution into 192 μL of a heated PBST. The final concentration ranged between 0.015 μM and 125 μM. 5 and 6 precipitated at 125 μM in 4% DMF/PBST. Samples were injected in the alternation with blanks. “Flow cell 2 with 1 as a reference” was selected and each sample was analyzed in triplicate. For each experiment, a calibration for bulk differences between flow cells due to the high refractive index of DMF was performed by injecting blank samples containing a range of DMF concentrations (1, 2, 3, 3.5, 4, 4.5, 5%) in PBST under conditions otherwise identical to those used for samples of compounds 5, 6 and 7.

| Kd (calmodulin) | precipitation in 4% DMF/PBST [1] | SMILES |
| --- | --- | --- |
| 1060 ± 90 nM | precipitated | Cc1c(-c2cc(N3C(=O)[C@@H]4C[C@@H]5C(=CC[C@@H]6C(=O)N(c7ccc(/N=N/c8ccc(N(C)C)cc8)cc7)C(=O)[C@@H]65)[C@H](c5cc(Cl)ccc5O)[C@]4(C)C3=O)n(C)n2)sc2ccc(Cl)cc12 [Compound 6] |
| 121 ± 30 nM | precipitated | CN(C)c1ccc(/N=N/c2ccc(N3C(=O)[C@H]4[C@H](CC=C5[C@H]4C[C@H]4C(=O)N(c6ccc(F)c(Cl)c6)C(=O)[C@@]4(C)[C@H]5c4cc(Cl)ccc4O)C3=O)cc2)cc1 [Compound 5] |
| 20700 ± 1000 nM |  | CC1=CC(=O)C2=C(C[C@@H]3C(=CC[C@@H]4C(=O)N(c5ccc(N6CCOCC6)cc5)C(=O)[C@@H]43)[C@@H]2c2ccc(O)cc2)C1=O [Compound 7] |
